Biological target: T1, RNF32 (GFP-RNF32) (Homo sapiens, UniProt Q9H0A6)
T1 construct: GFP-RNF32 fusion from plasmid, expressed in HCT116 cells, diluted cell lysate (not purified)
Test: microscale thermophoresis, GFP-RNF32 in HCT116 lysate
Type: biochemical

T1 sequence (Q9H0A6 whole entry, the tested form may be a part): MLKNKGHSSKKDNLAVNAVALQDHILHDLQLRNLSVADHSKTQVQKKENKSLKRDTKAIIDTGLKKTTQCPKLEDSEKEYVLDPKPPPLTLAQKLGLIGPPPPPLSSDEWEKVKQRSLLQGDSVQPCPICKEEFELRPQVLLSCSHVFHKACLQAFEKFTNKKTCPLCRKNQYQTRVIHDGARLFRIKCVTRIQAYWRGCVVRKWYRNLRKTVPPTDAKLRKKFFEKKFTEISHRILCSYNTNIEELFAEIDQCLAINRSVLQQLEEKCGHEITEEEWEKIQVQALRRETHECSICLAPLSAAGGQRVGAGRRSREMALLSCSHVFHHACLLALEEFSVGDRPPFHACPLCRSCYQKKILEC

Kd: 41.3 µM
SMILES: O=C(O)Cc1c[nH]c2ccccc12 [indole‐3‐acetic acid]

— PMC12931155, “Colorectal Cancer Cell's Weapon: RNF32 Engages SPP1^+ Macrophages to Foster Liver Metastasis, Targeted by Indole‐3‐Acetic Acid” (Advanced Science, 2025)
